Experimental data published in patent US20230406838A1, “MUTANT SELECTIVE EGFR INHIBITORS AND METHODS OF USE THEREOF” (Dana-Farber Cancer Institute, Inc., priority 2020, published 2023).
pIC50: −log10 of the molar value.

Experiments:
EGFR L858R = EGFR L858R (Homo sapiens, UniProt P00533, L858R); assay: HTRF-based EGFR biochemical assay, L858R; details: 100 μM ATP, enzyme 0.1 nM
Method: (§1) EGFR biochemical activity measurements were carried out using the homogeneous time-resolved fluorescence (HTRF) assay (Cisbio). Inhibitors and DMSO normalizations were first dispensed to empty black low-volume 384-well plates (Corning) with D300 digital liquid dispenser (HP). All reactions were carried out at room temperature and solutions were added to plates with a Multidrop Combi Reagent Dispenser (ThermoFisher). The reaction mixture (10 μL final volume) contained 1 μM tyrosine kinase peptide-biotin substrate and mutant EGFR in a reaction buffer (50 mM HEPES pH 7.0, 5 mM MgCl2, 1 mM MnCl2, 0.01% BSA, 2 mM TCEP, 0.1 mM NaVO4). […] Enzyme reaction solution (2× concentrations, 5 μL) was added to 384-well plates containing compounds and incubated for 30 mins. Enzyme reactions were initiated with the addition of 5 μL of ATP to a final concentration of 100 μM and reacted for 20 mins.

EGFR L858R/T790M = EGFR L858R/T790M (Homo sapiens, UniProt P00533, L858R/T790M); assay: HTRF-based EGFR biochemical assay, L858R/T790M; details: 100 μM ATP, enzyme 0.02 nM
Method: as §1

EGFR WT = EGFR WT (Homo sapiens, UniProt P00533); assay: HTRF-based EGFR biochemical assay, WT; details: 100 μM ATP, enzyme 5 nM
EGFR L858R/T790M/C797S = EGFR L858R/T790M/C797S (Homo sapiens, UniProt P00533, C797S/L858R/T790M); assay: HTRF-based EGFR biochemical assay, L858R/T790M/C797S; details: 100 μM ATP, enzyme 0.02 nM
Method: as §1

EGFR L858R/T790M, sequence (P00533 25-1210 T790M/L858R): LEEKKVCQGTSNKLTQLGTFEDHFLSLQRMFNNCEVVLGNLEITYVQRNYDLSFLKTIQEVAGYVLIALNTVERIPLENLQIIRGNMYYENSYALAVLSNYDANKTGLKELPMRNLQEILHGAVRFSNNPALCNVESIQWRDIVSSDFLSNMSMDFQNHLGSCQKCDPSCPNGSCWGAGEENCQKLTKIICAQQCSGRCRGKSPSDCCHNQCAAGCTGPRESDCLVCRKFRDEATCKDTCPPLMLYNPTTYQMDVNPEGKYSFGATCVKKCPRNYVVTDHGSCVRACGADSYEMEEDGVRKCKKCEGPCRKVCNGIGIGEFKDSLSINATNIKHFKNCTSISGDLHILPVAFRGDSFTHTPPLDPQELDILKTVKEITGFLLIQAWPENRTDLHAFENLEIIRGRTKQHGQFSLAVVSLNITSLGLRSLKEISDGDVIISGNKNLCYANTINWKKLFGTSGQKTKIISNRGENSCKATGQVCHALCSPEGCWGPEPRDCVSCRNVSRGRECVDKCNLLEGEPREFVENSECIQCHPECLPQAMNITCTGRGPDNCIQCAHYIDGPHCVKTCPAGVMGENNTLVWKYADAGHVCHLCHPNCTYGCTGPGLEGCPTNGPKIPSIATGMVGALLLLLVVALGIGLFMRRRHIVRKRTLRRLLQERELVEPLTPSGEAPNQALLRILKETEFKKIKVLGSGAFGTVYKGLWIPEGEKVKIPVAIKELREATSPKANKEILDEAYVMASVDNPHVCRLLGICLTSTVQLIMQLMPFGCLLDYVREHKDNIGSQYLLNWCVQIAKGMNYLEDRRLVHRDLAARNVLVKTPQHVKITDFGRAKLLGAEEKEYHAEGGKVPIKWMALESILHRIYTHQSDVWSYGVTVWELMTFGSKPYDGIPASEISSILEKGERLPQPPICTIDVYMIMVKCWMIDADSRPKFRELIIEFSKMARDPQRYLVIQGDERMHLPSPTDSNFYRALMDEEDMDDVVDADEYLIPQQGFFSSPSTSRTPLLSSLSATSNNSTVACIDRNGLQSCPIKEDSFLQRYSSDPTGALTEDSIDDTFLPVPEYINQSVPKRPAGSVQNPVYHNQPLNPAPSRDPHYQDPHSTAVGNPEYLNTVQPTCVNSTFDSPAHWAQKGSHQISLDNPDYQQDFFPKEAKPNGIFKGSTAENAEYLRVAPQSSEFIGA
EGFR L858R, sequence (P00533 25-1210 L858R): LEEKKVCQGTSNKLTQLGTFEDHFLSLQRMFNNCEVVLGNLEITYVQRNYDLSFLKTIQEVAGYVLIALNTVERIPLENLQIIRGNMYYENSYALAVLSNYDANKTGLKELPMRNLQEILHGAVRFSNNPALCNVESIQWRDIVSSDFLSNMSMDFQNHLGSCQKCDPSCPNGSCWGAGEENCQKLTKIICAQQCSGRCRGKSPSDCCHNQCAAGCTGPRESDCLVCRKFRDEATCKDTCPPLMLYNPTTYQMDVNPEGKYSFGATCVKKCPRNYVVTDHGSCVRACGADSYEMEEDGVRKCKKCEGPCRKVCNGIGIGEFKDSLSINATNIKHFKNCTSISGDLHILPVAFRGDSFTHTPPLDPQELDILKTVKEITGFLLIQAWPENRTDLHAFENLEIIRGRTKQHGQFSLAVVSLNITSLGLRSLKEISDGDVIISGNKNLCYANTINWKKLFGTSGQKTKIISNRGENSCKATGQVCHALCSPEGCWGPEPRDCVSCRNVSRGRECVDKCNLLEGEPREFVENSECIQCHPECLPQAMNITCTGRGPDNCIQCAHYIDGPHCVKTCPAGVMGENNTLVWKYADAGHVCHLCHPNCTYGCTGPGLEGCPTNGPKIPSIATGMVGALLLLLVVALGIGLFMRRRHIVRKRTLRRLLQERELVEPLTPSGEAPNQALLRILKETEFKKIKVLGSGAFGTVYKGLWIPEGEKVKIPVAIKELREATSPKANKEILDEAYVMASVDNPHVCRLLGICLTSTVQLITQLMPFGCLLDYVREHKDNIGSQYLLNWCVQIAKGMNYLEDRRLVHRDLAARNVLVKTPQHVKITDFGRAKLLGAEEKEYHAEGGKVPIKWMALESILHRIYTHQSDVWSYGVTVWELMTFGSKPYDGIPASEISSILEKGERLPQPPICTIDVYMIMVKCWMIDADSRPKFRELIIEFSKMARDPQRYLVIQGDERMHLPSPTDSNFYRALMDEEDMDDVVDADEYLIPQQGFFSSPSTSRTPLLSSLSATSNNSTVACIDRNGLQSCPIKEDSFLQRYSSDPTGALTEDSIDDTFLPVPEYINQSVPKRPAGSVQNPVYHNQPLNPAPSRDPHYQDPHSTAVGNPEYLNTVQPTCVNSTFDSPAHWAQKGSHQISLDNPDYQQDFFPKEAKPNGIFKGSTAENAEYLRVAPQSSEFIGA
EGFR WT, sequence (P00533 25-1210): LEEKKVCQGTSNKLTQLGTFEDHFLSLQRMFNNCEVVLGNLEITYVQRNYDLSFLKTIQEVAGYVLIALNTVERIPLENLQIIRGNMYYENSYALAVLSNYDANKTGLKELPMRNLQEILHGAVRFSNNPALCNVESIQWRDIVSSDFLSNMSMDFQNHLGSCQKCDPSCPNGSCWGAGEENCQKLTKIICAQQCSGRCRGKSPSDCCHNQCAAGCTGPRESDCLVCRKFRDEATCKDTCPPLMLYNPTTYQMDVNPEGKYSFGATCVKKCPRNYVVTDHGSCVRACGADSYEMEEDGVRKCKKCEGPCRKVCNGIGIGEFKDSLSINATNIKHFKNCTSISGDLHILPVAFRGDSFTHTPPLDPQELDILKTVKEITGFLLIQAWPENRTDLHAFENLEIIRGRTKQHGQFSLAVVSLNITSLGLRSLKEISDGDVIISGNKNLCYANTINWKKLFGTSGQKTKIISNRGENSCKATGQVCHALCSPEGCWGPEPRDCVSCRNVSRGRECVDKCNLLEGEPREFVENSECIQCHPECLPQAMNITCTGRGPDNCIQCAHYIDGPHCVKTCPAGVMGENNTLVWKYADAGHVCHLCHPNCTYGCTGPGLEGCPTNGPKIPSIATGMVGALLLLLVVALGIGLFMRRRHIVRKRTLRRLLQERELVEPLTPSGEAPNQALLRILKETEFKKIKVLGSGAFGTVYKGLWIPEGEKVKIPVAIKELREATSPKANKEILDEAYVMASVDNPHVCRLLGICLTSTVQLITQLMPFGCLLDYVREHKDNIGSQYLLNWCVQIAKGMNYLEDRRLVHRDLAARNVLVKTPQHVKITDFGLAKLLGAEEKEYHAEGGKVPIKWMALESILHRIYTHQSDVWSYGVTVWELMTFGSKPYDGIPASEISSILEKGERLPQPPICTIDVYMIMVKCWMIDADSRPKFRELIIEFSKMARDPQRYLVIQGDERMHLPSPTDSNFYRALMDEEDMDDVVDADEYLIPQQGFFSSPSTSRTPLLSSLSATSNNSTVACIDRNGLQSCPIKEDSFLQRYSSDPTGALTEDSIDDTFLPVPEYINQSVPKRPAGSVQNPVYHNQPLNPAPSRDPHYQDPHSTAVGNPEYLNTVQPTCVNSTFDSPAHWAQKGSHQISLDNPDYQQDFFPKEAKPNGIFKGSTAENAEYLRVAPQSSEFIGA
EGFR L858R/T790M/C797S, sequence (P00533 25-1210 T790M/C797S/L858R): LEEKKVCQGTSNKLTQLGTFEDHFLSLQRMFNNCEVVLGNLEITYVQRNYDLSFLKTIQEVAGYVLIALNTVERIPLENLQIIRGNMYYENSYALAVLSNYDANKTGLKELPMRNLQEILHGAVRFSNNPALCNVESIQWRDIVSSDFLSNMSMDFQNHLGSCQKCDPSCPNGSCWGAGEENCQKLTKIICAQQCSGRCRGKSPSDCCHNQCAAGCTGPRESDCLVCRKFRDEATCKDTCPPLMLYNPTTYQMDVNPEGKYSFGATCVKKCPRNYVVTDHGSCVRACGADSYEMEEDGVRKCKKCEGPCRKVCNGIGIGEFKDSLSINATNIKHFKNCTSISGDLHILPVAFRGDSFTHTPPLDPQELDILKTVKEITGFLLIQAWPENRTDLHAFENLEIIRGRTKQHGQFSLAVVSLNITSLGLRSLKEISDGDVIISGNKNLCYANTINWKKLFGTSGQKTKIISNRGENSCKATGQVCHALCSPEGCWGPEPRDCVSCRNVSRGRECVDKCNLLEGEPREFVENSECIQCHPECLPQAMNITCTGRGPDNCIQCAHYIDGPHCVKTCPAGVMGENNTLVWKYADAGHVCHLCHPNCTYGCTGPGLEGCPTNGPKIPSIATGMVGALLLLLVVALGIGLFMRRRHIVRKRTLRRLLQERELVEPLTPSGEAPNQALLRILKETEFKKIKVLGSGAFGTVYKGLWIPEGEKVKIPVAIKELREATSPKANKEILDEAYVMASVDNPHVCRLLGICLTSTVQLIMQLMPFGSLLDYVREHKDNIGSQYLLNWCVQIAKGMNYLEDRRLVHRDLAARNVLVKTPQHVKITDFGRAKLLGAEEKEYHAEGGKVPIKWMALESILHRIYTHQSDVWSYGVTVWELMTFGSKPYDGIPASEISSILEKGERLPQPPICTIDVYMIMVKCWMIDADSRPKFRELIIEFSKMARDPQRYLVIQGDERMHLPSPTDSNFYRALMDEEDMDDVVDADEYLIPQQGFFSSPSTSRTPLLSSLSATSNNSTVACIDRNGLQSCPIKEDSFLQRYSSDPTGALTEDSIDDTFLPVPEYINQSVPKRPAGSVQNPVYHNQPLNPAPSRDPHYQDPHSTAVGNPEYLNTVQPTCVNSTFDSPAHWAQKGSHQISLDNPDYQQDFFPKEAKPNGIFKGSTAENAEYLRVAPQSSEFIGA

Compound	pIC50 (EGFR L858R)	pIC50 (EGFR L858R/T790M)	pIC50 (EGFR WT)	pIC50 (EGFR L858R/T790M/C797S)
CSc1nc(-c2cccc(NC(=O)C3CCCC3)c2)c(-c2ccnc(NC(C)=O)c2)[nH]1 [Compound 001, N-(3-(5-(2-acetamidopyridin-4-yl)-2-(methylthio)-1H-imidazol-4-yl)phenyl)cyclopentane-carboxamide]	5.38	4.78		
CSc1nc(-c2cccc(NC(=O)C3CC3)c2)c(-c2ccnc(NC(C)=O)c2)[nH]1 [Compound 003, N-(3-(5-(2-acetamidopyridin-4-yl)-2-(methylthio)-1H-imidazol-4-yl)phenyl)cyclopropane-carboxamide]	5.37	4.84		
CSc1nc(-c2cccc(NC(=O)Nc3ccccc3)c2)c(-c2ccnc(NC(C)=O)c2)[nH]1 [Compound 005, N-(4-(2-(methylthio)-4-(3-(3-phenylureido)phenyl)-1H-imidazol-5-yl)pyridin-2-yl)acetamide]	5.44	5.43		
CSc1nc(-c2cccc(NC(=O)c3c(F)cccc3F)c2)c(-c2ccnc(Nc3ccccc3)c2)[nH]1 [Compound 010, 2,6-difluoro-N-(3-(2-(methylthio)-5-(2-(phenylamino)pyridin-4-yl)-1H-imidazol-4-yl)phenyl)benzamide]	7.49	5.62	7.82	
CSc1nc(-c2cc(NC(=O)c3c(F)cccc3F)cs2)c(-c2ccnc(NC(C)=O)c2)[nH]1 [Compound 011, N-(5-(5-(2-acetamidopyridin-4-yl)-2-(methylthio)-1H-imidazol-4-yl)thiophen-3-yl)-2,6-difluorobenzamide]	< 4.00	< 4.00		
CSc1nc(-c2cc(NC(=O)Cc3ccccc3)cs2)c(-c2ccnc(NC(C)=O)c2)[nH]1 [Compound 012, N-(5-(5-(2-acetamidopyridin-4-yl)-2-(methylthio)-1H-imidazol-4-yl)thiophen-3-yl)-2-phenylacetamide]	< 4.00	< 4.00		
CSc1nc(-c2cccc(NC(=O)Nc3ccc(Br)cc3)c2)c(-c2ccnc(NC(C)=O)c2)[nH]1 [Compound 015, N-(4-(4-(3-(3-(4-bromophenyl)ureido)phenyl)-2-(methylthio)-1H-imidazol-5-yl)pyridin-2-yl)acetamide]	5.19	5.23		
CSc1nc(-c2cccc(NC(=O)Nc3cccc(C(F)(F)F)c3)c2)c(-c2ccnc(NC(C)=O)c2)[nH]1 [Compound 016, N-(4(2-(methylthio)-4-(3-(3-(3-(trifluoromethyl)phenyl)ureido)phenyl)-1H-imidazol-5-yl)pyridin-2-yl)acetamide]	6.29	6.07		
CSc1nc(-c2cccc(NC(=O)Nc3ccc(F)cc3)c2)c(-c2ccnc(NC(C)=O)c2)[nH]1 [Compound 017, N-(4-(4-(3-(3-(4-fluorophenyl)ureido)phenyl)-2-(methylthio)-1H-imidazol-5-yl)pyridin-2-yl)acetamide]	5.38	5.28		
CSc1nc(-c2cccc(NC(=O)Nc3ccc(F)c(Cl)c3)c2)c(-c2ccnc(NC(C)=O)c2)[nH]1 [Compound 018]	5.80	5.66		
CSc1nc(-c2ccccc2NC(=O)Nc2ccc(Br)cc2)c(-c2ccnc(NC(C)=O)c2)[nH]1 [Compound 019, N-(4-(4-(2(3-(4-bromophenyl)ureido)phenyl)-2-(methylthio)-1H-imidazol-5-yl)pyridin-2-yl)acetamide]	< 4.00	< 4.00		
CSc1nc(-c2cccc(NC(=O)Nc3ccccc3)c2)c(-c2ccnc(NC(C)=O)c2)[nH]1 [Compound 020, N-(4-(2-(methylthio)-4-(3-(3-phenylureido)phenyl)-1H-imidazol-5-yl)pyridin-2-yl)acetamide]	< 4.00	< 4.00		
CSc1nc(-c2ccccc2NC(=O)C2CCCC2)c(-c2ccnc(NC(C)=O)c2)[nH]1 [Compound 022, N-(2(5-(2-acetamidopyridin-4-yl)-2-(methylthio)-1H-imidazol-4-yl)phenyl)cyclopentane-carboxamide]	< 4.00	< 4.00		
CSc1nc(-c2ccccc2NC(=O)c2cccc3[nH]ccc23)c(-c2ccnc(NC(C)=O)c2)[nH]1 [Compound 023, N-(2-(5-(2-acetamidopyridin-4-yl)-2-(methylthio)-1H-imidazol-4-yl)phenyl)-1H-indole-4-carboxamide]	< 4.00	< 4.00		
COc1cccc(C(=O)Nc2ccccc2-c2nc(SC)[nH]c2-c2ccnc(NC(C)=O)c2)c1 [Compound 025, N-(2-(5-(2-acetamidopyridin-4-yl)-2-(methylthio)-1H-imidazol-4-yl)phenyl)-3-methoxybenzamide]	< 4.00	< 4.00		
CSc1nc(-c2ccccc2NC(=O)c2cc(C)cs2)c(-c2ccnc(NC(C)=O)c2)[nH]1 [Compound 026, N-(2-(5-(2-acetamidopyridin-4-yl)-2-(methylthio)-1H-imidazol-4-yl)phenyl)-4-methyl-thiophene-2-carboxamide]	< 4.00	< 4.00		

Continued, values first:

pIC50 (EGFR L858R)	pIC50 (EGFR L858R/T790M)	pIC50 (EGFR WT)	pIC50 (EGFR L858R/T790M/C797S)	Compound
< 4.00	< 4.00			CSc1nc(-c2ccccc2NC(=O)c2ccco2)c(-c2ccnc(NC(C)=O)c2)[nH]1 [Compound 027, N-(2-(5-(2-acetamidopyridin-4-yl)-2-(methylthio)-1H-imidazol-4-yl)phenyl)furan-2-carboxamide]
< 4.00	< 4.00			CSc1nc(-c2ccccc2NC(=O)c2ccccc2O)c(-c2ccnc(NC(C)=O)c2)[nH]1 [Compound 032, N-(2-(5-(2-acetamidopyridin-4-yl)-2-(methylthio)-1H-imidazol-4-yl)phenyl)-2-hydroxybenzamide]
< 4.00	< 4.00			CSc1nc(-c2ccccc2NC(=O)CCc2ccccc2)c(-c2ccnc(NC(C)=O)c2)[nH]1 [Compound 033, N-(2(5-(2-acetamidopyridin-4-yl)-2-(methylthio)-1H-Imidazol-4-yl)phenyl)-3-phenylpropanamide]
5.73	5.10			CSc1nc(-c2cccc(NC(=O)CCc3ccccc3)c2)c(-c2ccnc(NC(C)=O)c2)[nH]1 [Compound 037, N-(3-(5-(2-acetamidopyridin-4-yl)-2-(methylthio)-1H-imidazol-4-yl)phenyl)-3-phenylpropanamide]
6.01	5.72			CSc1nc(-c2ccc(F)c(NC(=O)Cc3c(F)cccc3F)c2)c(-c2ccnc(NC(C)=O)c2)[nH]1 [Compound 052, N-(5-(5-(2-acetamidopyridin-4-yl)-2-(methylthio)-1H-Imidazol-4-yl)-2-fluorophenyl)-2-(2,6-difluorophenyl)acetamide]
5.89	6.10			CSc1nc(-c2cccc(NC(=O)Cc3c(F)cccc3F)c2)c(-c2ccnc(NC(C)=O)c2)[nH]1 [Compound 053, N-(3-(5-(2-acetamidopyridin-4-yl)-2-(methylthio)-1H-Imidazol-4-yl)phenyl)-2-(2,6-difluorophenyl)acetamide]
< 4.00	< 4.00			CSc1nc(-c2cccc3c2CCC3NC(=O)c2c(F)cccc2F)c(-c2ccnc(NC(C)=O)c2)[nH]1 (centres unmarked) [Compound 055, N-(4-(5-(2-acetamidopyridin-4-yl)-2-(methylthio)-1H-imidazol-4-yl)-2,3-dihydro-1H-inden-1-yl)-2,6-difluorobenzamide]
< 4.00	< 4.00			CSc1nc(-c2cccc3c2CCC3NC(=O)c2cccc3[nH]ccc23)c(-c2ccnc(NC(C)=O)c2)[nH]1 (centres unmarked) [Compound 056, N-(4(5-(2-acetamidopyridin-4-yl)-2-(methylthio)-1H-imidazol-4-yl)-2,3-dihydro-1H-inden-1-yl)-1H-indole-4-carboxamide]
< 4.00	< 4.00			CSc1nc(-c2cccc3c2CCC3NC(=O)c2cc(F)cc(F)c2)c(-c2ccnc(NC(C)=O)c2)[nH]1 (centres unmarked) [Compound 057, N-(4-(5-(2-acetamidopyridin-4-yl)-2-(methylthio)-1H-imidazol-4-yl)-2,3-dihydro-1H-inden-1-yl)-3,5-difluorobenzamide]
< 4.00	< 4.00	< 4.00	< 4.00	CSc1nc(-c2cccc(NC(=O)c3c(F)ccc(O)c3CN3Cc4ccccc4C3=O)c2)c[nH]1 [Compound 058, 6-fluoro-3-hydroxy-N-(3-(2-(methylthio)-1H-imidazol-4-yl)phenyl)-2-((1-oxoisoindolin-2-yl)methyl)benzamide]
5.51	< 4.00	< 4.00	< 4.00	CSc1nc(-c2ccnc(NC(C)=O)c2)c(-c2cccc(NC(=O)c3c(F)ccc(O)c3CN3Cc4ccccc4C3=O)c2)n1C [Compound 059, N-(3-(4-(2-acetamidopyridin-4-yl)-1-methyl-2-(methylthio)-1H-imidazol-5-yl)phenyl)-6-fluoro-3-hydroxy-2-((1-oxoisoindolin-2-yl)methyl)benzamide]
	< 4.00	< 4.00	< 4.00	CSc1nc(-c2cccc(NC(=O)c3cc(O)ccc3F)c2)c[nH]1 [Compound 060]
